Laboratory results taken from PMC8372184 (Synlett : accounts and rapid communications in synthetic …, 2021).

What was measured:
GetF [1] = target: T1, GetF (Streptomyces sp. L-49973, UniProt E0WFM0); experiment: C3 hydroxylation, product isolated after Boc protection; assay type: cell-based; conditions: alpha-ketoglutarate, Fe(II)
T1 sequence (E0WFM0 1-363): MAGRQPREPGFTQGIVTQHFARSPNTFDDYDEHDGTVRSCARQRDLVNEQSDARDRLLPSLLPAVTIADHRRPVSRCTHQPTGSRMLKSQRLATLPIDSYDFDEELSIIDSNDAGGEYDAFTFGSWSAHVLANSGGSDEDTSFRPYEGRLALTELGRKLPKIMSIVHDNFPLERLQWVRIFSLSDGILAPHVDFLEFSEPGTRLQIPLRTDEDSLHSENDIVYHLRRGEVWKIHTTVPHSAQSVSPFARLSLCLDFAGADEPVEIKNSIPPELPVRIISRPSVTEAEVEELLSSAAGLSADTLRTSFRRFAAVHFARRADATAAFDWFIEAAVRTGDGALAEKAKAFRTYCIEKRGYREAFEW

GriE = target: T2, GriE (Streptomyces muensis, UniProt A0A0E3URV8); experiment: LCMS of C5 hydroxylation; assay type: biochemical; conditions: alpha-ketoglutarate, Fe(II), ascorbate
T2 sequence (A0A0E3URV8 1-270): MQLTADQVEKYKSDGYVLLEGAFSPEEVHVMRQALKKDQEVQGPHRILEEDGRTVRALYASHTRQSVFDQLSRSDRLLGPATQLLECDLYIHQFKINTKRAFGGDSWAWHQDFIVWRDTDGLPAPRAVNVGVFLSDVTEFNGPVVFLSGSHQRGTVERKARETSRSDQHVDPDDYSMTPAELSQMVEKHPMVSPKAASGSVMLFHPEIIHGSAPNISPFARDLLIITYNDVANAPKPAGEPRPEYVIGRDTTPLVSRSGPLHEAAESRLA

GetF [2] = target: T1, GetF; experiment: preparative-scale hydroxylation; assay type: cell-based; conditions: alpha-ketoglutarate, Fe(II)
GlbB = target: T3, GlbB (Caldimonas brevitalea, UniProt A8KCI8); experiment: 4-hydroxylation; assay type: biochemical; conditions: alpha-ketoglutarate, Fe(II)
T3 sequence (A8KCI8 1-286): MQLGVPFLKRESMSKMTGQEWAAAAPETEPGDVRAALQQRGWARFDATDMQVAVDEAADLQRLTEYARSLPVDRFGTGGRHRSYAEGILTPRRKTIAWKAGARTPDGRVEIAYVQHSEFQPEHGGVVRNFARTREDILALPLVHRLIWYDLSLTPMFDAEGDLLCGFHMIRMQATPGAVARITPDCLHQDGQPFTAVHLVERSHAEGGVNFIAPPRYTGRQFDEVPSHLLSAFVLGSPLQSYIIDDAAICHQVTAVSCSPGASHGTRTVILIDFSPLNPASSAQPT

KDO1 = target: T4, KDO1 (Catenulispora acidiphila, UniProt C7QJ42); experiment: gram-scale 3-hydroxylation in E. coli lysate; assay type: biochemical; conditions: alpha-ketoglutarate, Fe(II)
T4 sequence (C7QJ42 1-358): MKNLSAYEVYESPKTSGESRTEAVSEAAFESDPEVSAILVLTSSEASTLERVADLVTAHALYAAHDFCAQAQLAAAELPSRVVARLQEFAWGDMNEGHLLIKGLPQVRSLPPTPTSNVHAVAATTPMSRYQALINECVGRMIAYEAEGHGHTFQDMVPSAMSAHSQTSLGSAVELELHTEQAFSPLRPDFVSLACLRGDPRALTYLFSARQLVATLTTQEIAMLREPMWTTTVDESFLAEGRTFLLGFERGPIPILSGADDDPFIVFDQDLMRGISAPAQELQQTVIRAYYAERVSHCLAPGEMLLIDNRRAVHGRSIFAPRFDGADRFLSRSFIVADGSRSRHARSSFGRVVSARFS

GetI = target: T5, GetI (Streptomyces sp. L-49973, UniProt E0WFM2); experiment: preparative-scale 4-hydroxylation; assay type: cell-based; conditions: alpha-ketoglutarate, Fe(II)
T5 sequence (E0WFM2 1-345): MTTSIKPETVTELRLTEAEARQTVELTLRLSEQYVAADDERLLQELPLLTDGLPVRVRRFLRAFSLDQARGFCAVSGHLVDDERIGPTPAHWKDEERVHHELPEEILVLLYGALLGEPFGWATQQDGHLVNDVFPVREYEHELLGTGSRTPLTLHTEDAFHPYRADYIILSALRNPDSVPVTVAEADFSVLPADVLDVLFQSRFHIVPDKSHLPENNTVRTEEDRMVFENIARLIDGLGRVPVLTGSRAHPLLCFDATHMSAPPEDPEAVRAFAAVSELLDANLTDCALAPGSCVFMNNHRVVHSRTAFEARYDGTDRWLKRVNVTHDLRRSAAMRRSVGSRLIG

C[C@H]1CCN[C@@H]1C(=O)O [compound 15, proline derivative 15]
C3 hydroxylation, product isolated after Boc protection (GetF [1]): The final C3 hydroxylation was performed with GetF

CC(C)C[C@H](N)C(=O)O [L-leucine]
LCMS of C5 hydroxylation (GriE): GriE revealed a highly active enzyme that is capable of hydroxylating L-leucine

O=C(O)[C@@H]1CCCCN1 [L-Pip]
preparative-scale hydroxylation (GetF [2]): Biocatalytic hydroxylation of L-Pip and L-Cit was performed on preparative scale with GetF and GetI

NCCCC[C@H](N)C(=O)O [L-lysine]
4-hydroxylation (GlbB): GlbB was shown to be a highly efficient enzyme capable of hydroxylating L-lysine | gram-scale 3-hydroxylation in E. coli lysate (KDO1): optimizing the biocatalytic hydroxylation with lysates of E. coli expressing KDO1

NC(=O)NCCC[C@H](N)C(=O)O [L-Cit]
preparative-scale 4-hydroxylation (GetI): Biocatalytic hydroxylation of L-Pip and L-Cit was performed on preparative scale with GetF and GetI
